The results in this text go back to ChEMBL document CHEMBL3739345, “Design and synthesis of potent and selective inhibitors of BRD7 and BRD9 bromodomains” (Medchemcomm, 2015).

The ΔTm is the shift of the melting midpoint relative to a reference. In general, IC50 refers to the concentration that inhibits the measured activity by half.

For experiment [1], the target named is T1, Bromodomain-containing protein 9 (Homo sapiens) (UniProt Q9H8M2).
T1 sequence (whole entry): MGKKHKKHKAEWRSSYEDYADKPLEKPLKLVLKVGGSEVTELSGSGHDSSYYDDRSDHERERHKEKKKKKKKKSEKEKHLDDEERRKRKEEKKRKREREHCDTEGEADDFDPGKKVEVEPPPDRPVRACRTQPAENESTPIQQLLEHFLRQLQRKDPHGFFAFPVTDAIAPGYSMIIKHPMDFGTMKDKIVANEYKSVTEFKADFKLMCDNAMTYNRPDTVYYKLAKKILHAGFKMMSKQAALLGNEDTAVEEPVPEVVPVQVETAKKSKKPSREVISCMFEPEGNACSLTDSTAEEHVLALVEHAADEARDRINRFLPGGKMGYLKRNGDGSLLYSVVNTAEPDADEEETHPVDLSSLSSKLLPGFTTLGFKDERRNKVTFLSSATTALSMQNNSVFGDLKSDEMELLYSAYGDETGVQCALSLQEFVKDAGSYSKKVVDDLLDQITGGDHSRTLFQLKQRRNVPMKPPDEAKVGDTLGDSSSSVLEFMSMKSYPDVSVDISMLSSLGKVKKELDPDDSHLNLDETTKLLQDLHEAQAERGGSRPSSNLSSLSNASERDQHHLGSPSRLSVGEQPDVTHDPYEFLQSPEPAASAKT
Briefly: Binding affinity to human BRD9 assessed as change in melting temperature at 10 uM by differential scanning fluorimetry.

Experiment [2] has as its target T2, Bromodomain-containing protein 4 (Homo sapiens, UniProt O60885). Briefly: Binding affinity to human BRD4 assessed as change in melting temperature at 10 uM by differential scanning fluorimetry. For orientation: Differential scanning fluorimetry follows unfolding on heating by fluorescence.
In the next experiment the target is T3, Peregrin (Homo sapiens) (UniProt P55201).
T3 sequence (whole entry): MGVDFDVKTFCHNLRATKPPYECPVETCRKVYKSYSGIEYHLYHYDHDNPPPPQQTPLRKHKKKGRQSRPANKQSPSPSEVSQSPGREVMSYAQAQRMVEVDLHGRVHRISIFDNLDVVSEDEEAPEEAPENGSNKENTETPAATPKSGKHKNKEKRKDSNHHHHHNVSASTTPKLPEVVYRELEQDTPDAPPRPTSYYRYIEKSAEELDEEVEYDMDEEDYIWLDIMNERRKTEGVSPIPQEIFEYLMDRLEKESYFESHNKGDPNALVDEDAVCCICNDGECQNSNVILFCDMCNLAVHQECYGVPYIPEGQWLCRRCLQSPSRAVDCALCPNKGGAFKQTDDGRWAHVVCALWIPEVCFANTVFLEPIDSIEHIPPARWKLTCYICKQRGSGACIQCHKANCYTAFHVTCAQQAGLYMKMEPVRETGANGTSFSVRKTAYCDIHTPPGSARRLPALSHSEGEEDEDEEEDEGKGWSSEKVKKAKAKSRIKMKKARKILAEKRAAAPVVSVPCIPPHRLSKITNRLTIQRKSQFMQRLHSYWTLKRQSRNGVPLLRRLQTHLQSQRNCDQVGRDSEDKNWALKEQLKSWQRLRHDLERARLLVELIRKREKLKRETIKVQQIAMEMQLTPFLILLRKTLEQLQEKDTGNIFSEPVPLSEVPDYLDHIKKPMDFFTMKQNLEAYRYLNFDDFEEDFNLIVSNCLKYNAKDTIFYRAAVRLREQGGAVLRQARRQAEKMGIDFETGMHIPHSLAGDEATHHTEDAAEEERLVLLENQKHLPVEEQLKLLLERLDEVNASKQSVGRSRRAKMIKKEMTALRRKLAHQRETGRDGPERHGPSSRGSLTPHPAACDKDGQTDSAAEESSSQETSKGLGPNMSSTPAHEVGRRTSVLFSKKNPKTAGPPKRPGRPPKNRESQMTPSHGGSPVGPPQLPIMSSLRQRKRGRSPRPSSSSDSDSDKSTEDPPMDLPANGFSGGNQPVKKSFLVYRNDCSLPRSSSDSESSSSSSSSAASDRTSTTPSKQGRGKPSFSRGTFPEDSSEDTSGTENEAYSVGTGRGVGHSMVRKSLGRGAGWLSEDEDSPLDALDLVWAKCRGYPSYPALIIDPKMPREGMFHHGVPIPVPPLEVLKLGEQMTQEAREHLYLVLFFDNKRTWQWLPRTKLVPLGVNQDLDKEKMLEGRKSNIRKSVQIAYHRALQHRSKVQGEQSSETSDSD
The experiment can be described thus: Binding affinity to human BRPF1B assessed as change in melting temperature at 10 uM by differential scanning fluorimetry.

The target in experiment [3] is Bromodomain adjacent to zinc finger domain protein 2B (Homo sapiens, UniProt Q9UIF8). The experiment can be described thus: Inhibition of human BAZ2B by alpha screen assay. (In Alpha technology, singlet oxygen from a donor bead excites a nearby acceptor bead.)
Experiment [4] concerns the target T4, Bromodomain-containing protein 9 (Homo sapiens, UniProt Q9H8M2).
T4 sequence (Q9H8M2 whole entry): T1 sequence (whole entry)
Briefly: Inhibition of human BRD9 by alpha screen assay.

A further experiment addresses T5, Peregrin (Homo sapiens, UniProt P55201).
T5 sequence (P55201 whole entry): T3 sequence (whole entry)
The experiment can be described thus: Inhibition of human BRPF1B by alpha screen assay.

The target in experiment [5] is T2, Bromodomain-containing protein 4. The experiment can be described thus: Inhibition of human BRD4 by alpha screen assay.

Some results are limits rather than exact numbers.

Chain of Bromodomain adjacent to zinc finger domain protein 2B (Q9UIF8 whole entry, the tested form may be a part): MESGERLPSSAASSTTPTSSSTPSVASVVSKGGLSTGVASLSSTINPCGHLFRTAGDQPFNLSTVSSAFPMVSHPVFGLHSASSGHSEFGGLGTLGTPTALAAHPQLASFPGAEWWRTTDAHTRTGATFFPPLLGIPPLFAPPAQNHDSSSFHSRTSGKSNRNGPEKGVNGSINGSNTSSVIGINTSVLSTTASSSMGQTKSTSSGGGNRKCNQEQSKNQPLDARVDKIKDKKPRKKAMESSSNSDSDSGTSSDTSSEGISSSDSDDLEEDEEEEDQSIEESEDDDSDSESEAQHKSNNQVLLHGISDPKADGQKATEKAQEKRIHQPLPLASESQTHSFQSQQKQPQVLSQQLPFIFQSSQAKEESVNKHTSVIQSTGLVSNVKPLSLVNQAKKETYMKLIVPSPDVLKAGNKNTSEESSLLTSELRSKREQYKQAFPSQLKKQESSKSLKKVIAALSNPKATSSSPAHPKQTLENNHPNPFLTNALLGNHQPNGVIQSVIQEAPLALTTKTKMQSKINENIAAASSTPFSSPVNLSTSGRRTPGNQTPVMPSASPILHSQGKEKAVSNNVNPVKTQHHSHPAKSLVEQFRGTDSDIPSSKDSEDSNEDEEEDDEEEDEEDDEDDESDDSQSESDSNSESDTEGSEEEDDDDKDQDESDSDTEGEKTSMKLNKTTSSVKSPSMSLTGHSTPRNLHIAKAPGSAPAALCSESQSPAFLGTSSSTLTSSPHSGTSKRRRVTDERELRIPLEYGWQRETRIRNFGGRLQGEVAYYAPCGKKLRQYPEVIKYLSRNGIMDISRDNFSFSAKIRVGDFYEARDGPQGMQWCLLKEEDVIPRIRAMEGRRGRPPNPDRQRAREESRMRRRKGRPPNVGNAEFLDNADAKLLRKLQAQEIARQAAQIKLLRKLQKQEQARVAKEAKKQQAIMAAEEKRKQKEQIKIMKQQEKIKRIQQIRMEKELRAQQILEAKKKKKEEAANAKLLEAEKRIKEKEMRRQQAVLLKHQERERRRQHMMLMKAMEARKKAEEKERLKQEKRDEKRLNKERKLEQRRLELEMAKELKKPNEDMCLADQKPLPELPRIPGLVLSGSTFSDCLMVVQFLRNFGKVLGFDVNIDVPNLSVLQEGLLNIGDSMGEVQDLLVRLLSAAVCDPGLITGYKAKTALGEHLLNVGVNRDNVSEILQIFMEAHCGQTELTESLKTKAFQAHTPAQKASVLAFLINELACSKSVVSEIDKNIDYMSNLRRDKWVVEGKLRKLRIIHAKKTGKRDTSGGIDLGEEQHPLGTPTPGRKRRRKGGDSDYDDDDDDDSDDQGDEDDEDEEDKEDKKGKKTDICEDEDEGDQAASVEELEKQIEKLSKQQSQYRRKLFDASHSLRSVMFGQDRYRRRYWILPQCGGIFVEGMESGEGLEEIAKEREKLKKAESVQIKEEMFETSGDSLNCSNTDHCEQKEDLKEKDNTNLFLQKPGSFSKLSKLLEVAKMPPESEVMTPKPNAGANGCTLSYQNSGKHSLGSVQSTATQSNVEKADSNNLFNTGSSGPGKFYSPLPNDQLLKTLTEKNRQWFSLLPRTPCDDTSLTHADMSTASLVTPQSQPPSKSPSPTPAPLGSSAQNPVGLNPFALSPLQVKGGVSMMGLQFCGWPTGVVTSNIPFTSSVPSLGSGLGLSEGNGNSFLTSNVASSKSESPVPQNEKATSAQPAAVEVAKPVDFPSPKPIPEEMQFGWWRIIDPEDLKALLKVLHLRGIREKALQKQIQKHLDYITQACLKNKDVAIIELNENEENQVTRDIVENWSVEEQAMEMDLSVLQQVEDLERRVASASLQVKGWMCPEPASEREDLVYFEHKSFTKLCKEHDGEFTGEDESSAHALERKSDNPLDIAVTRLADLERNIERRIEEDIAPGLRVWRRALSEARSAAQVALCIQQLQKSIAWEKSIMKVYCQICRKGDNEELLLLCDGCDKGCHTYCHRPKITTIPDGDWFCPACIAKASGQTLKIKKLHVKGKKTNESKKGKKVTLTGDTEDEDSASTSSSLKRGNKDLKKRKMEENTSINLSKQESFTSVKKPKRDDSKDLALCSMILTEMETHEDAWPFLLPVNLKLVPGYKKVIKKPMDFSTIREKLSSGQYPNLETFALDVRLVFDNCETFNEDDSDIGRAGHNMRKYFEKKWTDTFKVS

In the case of `COC(=O)c1ccnc(-c2cc(C(C)=O)n3ccc(N4CCOCC4)cc23)c1`, the ΔTm is 0.35 °C in experiment [1], 0.075 °C in experiment [2] and 0.04 °C at Peregrin (Homo sapiens).
As for `CC(=O)c1cc(-c2ncccn2)c2cc(N3CCOCC3)ccn12`, the ΔTm came out at 0.035 °C in experiment [1], 0.43 °C in experiment [2] and 0.29 °C at Peregrin (Homo sapiens).
The like results for `CC(=O)c1cc(-c2ncccc2F)c2cc(N3CCOCC3)ccn12` were, in that order, 1.3 °C, 0.41 °C and 0.71 °C.
The like results for `CC(=O)c1cc(-c2nc3ccccc3s2)c2cc(N3CCOCC3)ccn12` were, in that order, -0.3 °C, 0.55 °C and 0.04 °C.
On to `CC(=O)c1cc(-c2cc(C(=O)O)ccn2)c2cc(N3CCOCC3)ccn12`, for which the ΔTm in experiment [1] is -0.06 °C; in experiment [2], -0.24 °C; on Peregrin (Homo sapiens) it was 0.01 °C.
As for `CCCOc1ccn2c(C(C)=O)cc(-c3ccccn3)c2c1`, the IC50 in experiment [3] and in experiment [4] was 2510 nM throughout. Moreover, the ΔTm was 1.1 °C in experiment [1], -0.35 °C in experiment [2] and 0.32 °C on Peregrin (Homo sapiens).
For the compound `CC(=O)c1cc(-c2cccc3nccn23)c2cc(N3CCN(C)CC3)ccn12`, the ΔTm in experiment [1] came out at 7.5 °C; in experiment [2], 4.1 °C; at Peregrin (Homo sapiens), 3.5 °C. Besides, the IC50 (against Peregrin; in experiment [5]) was at most 1000 nM throughout.
In the case of `CN1CCN(c2ccn3c(C(=O)C(F)(F)F)cc(-c4cccc5nccn45)c3c2)CC1`, the thermal shift (ΔTm) in experiment [1] was 0.3 °C; in experiment [2], -0.7 °C; on Peregrin (Homo sapiens) it was 0.26 °C.
The like results for `CCCOc1ccn2c(C(C)=O)cc(-c3cc(C(=O)OC)ccn3)c2c1` were, in that order, -0.03 °C, -0.24 °C and 0.09 °C.
For `CN1CCN(c2ccn3c(C(=O)C4CC4)cc(-c4cccc5nccn45)c3c2)CC1`, the ΔTm was 0.76 °C in experiment [1], -0.65 °C in experiment [2] and 0.085 °C on Peregrin (Homo sapiens).
Consider `CC(=O)c1cc(-c2cccc3nccn23)c2cc(N3CCNCC3)ccn12`, for which the ΔTm in experiment [1] worked out at 5.1 °C; in experiment [2], 2.6 °C; on Peregrin (Homo sapiens), 2.3 °C.
With `CC(=O)c1cc(-c2cccc(Cl)n2)c2cc(N3CCOCC3)ccn12`, the values for the ΔTm (in experiment [1]; in experiment [2]; on Peregrin (Homo sapiens)) were 0.81 °C, 0.28 °C and 0.34 °C, respectively.
In the case of `CC(=O)c1cc(-c2ccccn2)c2cc(N3CCNCC3)ccn12`, the ΔTm in experiment [1] is 5.7 °C; in experiment [2], 4 °C; at Peregrin (Homo sapiens) it was 1.7 °C.
Taken in the same sequence, the figures for `COc1cccc(-c2cc(C(C)=O)n3ccc(N4CCOCC4)cc23)n1` were 1.3 °C, 0.82 °C and 0.53 °C.
Taken in the same sequence, the figures for `CCCOc1ccn2c(C(C)=O)cc(-c3cccc(Cl)n3)c2c1` were 0.085 °C, -0.6 °C and 0.18 °C.
With `CC(=O)c1cc(-c2ccc(C(F)(F)F)cn2)c2cc(N3CCOCC3)ccn12`, the thermal shift (ΔTm) in experiment [1] is -1.1 °C; in experiment [2] it was -4 °C; on Peregrin (Homo sapiens) it was 2.5 °C.
In the case of `CCC(=O)c1cc(-c2cccc3nccn23)c2cc(N3CCOCC3)ccn12`, the ΔTm in experiment [1] came out at 3 °C; in experiment [2], 0.98 °C; at Peregrin (Homo sapiens), 0.2 °C.
Taken in the same sequence, the figures for `CC(=O)c1cc(-c2ncc(C)cc2F)c2cc(N3CCOCC3)ccn12` were -0.28 °C, -0.42 °C and 0.48 °C.
For `CCC(=O)c1cc(-c2cccc3nccn23)c2cc(N3CCN(C)CC3)ccn12`, the ΔTm was determined as 1.2 °C in experiment [1], 0.51 °C in experiment [2] and 0.15 °C at Peregrin (Homo sapiens).
Turning to `CC(=O)c1cc(-c2cccc(C)n2)c2cc(N3CCOCC3)ccn12`, the values for the IC50 in experiment [3] and in experiment [4] were 15800 nM and 501 nM, respectively. Also, the values for the ΔTm (in experiment [1]; in experiment [2]; on Peregrin (Homo sapiens)) were 4.2 °C, 1.2 °C and 0.65 °C, respectively.
Regarding `O=C(c1cc(-c2cccc3nccn23)c2cc(N3CCOCC3)ccn12)C(F)(F)F`, the results for the ΔTm (in experiment [1]; in experiment [2]; at Peregrin (Homo sapiens)) were 0.26 °C, -0.4 °C and 0.2 °C, respectively.
Take `CC(=O)c1cc(-c2ccccn2)c2cc(N3CCOCC3)ccn12`: the IC50 in experiment [3] was 3160 nM; in experiment [4] it was 501 nM. Further, the figures for the ΔTm (in experiment [1]; in experiment [2]; on Peregrin (Homo sapiens)) were 5.7 °C, 1.9 °C and 1.3 °C, respectively.
Consider `CCCCC(=O)c1cc(-c2cccc3nccn23)c2cc(N3CCN(C)CC3)ccn12`, for which the ΔTm in experiment [1] is 0.27 °C; in experiment [2] it was -0.78 °C; at Peregrin (Homo sapiens) it was 0.5 °C.
Taken in the same sequence, the figures for `CC(C)C(=O)c1cc(-c2cccc3nccn23)c2cc(N3CCN(C)CC3)ccn12` were 1 °C, 0.19 °C and 0.71 °C.
Regarding `CC(=O)c1cc(-c2ccc(Cl)cn2)c2cc(N3CCOCC3)ccn12`, the values for the ΔTm (in experiment [1]; in experiment [2]; on Peregrin (Homo sapiens)) were -0.23 °C, -0.39 °C and 0.22 °C, respectively.
